As usually defined, the inhibition is the share of the control response that was lost under treatment. Low values mean a response near the control, high ones a response far below the control.

This experiment has as its target T1, human LH-RH receptor (Homo sapiens, UniProt P30968).
T1 construct: cell membrane fraction or whole cells
T1 sequence (P30968 1-328): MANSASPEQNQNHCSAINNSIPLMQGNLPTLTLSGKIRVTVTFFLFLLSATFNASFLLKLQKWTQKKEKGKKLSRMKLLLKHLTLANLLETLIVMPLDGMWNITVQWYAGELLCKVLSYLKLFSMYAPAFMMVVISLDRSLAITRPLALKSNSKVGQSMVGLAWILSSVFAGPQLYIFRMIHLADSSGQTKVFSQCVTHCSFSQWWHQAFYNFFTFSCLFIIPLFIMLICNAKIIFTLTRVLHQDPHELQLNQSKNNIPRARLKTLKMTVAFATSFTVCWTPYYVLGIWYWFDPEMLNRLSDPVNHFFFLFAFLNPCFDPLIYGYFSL
In words: [125I]-leuprorelin binding inhibition, CHO cell membrane fraction. The note with it: 2 μl of 2 mM compound in 60% DMSO added to 188 μl of 200 μg/ml membrane fraction with 10 μl of 3.6 nM [125I]-leuprorelin; 25° C., 60 minutes. The procedure: The human LH-RH receptor expression cells (10^9 cells) obtained in Example 2 were suspended in phosphate buffered saline containing 5 mM EDTA (PBS-EDTA), and centrifuged at 100×g for 5 minutes. To cell pellets, 10 ml of a cell homogenating buffer (10 mM NaHCO3, 5 mM EDTA, pH 7.5) was added, followed by homogenization with a Polytron homogenizer. After centrifugation at 400×g for 15 minutes, the supernatant was placed in an ultracentrifugal tube, and centrifuged at 100,000×g for 1 hour to obtain a cell membrane fraction precipitate. This precipitate was suspended in 2 ml of an assay buffer, and centrifuged at 100,000×g for 1 hour. The cell membrane fraction recovered as a precipitate was suspended in 20 ml of the assay buffer again. The suspension was dispensed and stored at -80° C. It was defrosted at every time of use. […]
Using the human LH-RH receptor expression CHO cell membrane fraction, reaction was conducted at 25° C. for 60 minutes. […] After the filtration, the radioactivity of [^125 I]-leuprorelin left on the filter was measured with a gamma-ray counter.
The binding inhibition rate of each sample to be tested was determined according to the following equation: [formula] wherein SB represents the radioactivity when the compound is added, TB represents the maximum binding radioactivity, and NSB represents the non-specific binding radioactivity.

Regarding `CCOC(=O)c1cn(Cc2ccccc2OC)c2sc(-c3ccc(OC)cc3)c(C)c2c1=O` [Reference Example 9], the inhibition at 2000 µM (stock) was found to be 67%.

These data come from patent US6117645A, “Human LH-RH receptor expression cells and use thereof” (Takeda Chemical Industries, Ltd., priority 1994, dated 2000).
